Measurements as given in patent US20210261621A1, “Preparation of Dilipid Polymixins and Use Thereof as Antimicrobial Adjuvants” (priority 2018, published 2021).
In brackets after ≈: the same amount, converted by molar mass. Like-named read-outs stand apart in the source and are kept apart here. Positions of bridges follow the written chain, without caps; N, C: chain ends. Non-standard residues stand in square brackets, D forms with d. Residues, ends and D or L forms follow the SMILES beside them. *: point of attachment. Benzoyl(4-Ph) = O=C(c1ccc(-c2ccccc2)cc1)*; Lauroyl = CCCCCCCCCCCC(=O)*; Dab = NCC[C@H](N)C(=O)O; Butyryl = CCCC(=O)*

Key:
K. pneumoniae 113254 = assay type: cell-based, Klebsiella pneumoniae; settings: 113254
Procedure: (§1) We then addressed the possibility for the dilipid polymyxins to display enhanced antibacterial activity against colistin-resistant Gram-negative pathogens. […] The extended hydrophobic region of the dilipid polymyxin may provide additional hydrophobic interactions to the outer membrane of colistin-resistant organisms. Eight MDR colistin-resistant Gram-negative bacterial isolates were tested, including two E. coli isolates harboring the mcr-1 plasmid-encoded polymyxin resistance gene. We found no difference between the antibacterial activity of dilipid polymyxins and colistin against colistin-resistant Gram-negative bacteria (Table 3).
(§2) Bacterial strains were either obtained from the American Type Culture Collection (ATCC), Canadian National Intensive Care Unit (CAN-ICU) surveillance study or the Canadian Ward Surveillance (CANWARD) study. Strains from both CAN-ICU and CANWARD are isolates recovered from patients diagnosed with a presumed infectious disease that were admitted in a participating medical center across Canada. Efflux-deficient strain PAO200 (lacking MexAB-OprM efflux system) and PA0750 (lacking MexAB-OprM, MexCD-OprJ, MexEF-OprN, MexJK and MexXY efflux systems, and the outer membrane protein OpmH) were kindly gifted by Dr. Ayush Kumar (University of Manitoba).
(§3) The in vitro antibacterial activity of the compounds studied were assessed by broth microdilution susceptibility testing following CLSI guidelines. Bacterial cultures were grown overnight prior to the assay. The overnight grown cultures were diluted in saline to 0.5 McFarland turbidity, followed by 1:50 dilution in Mueller-Hinton broth (MHB) for inoculation to a final concentration of approximately 5×10^5 colony forming units/mL. Testing was performed on 96-well plates where the tested compounds were 2-fold serially diluted in MHB and incubated with equal volumes of bacterial inoculum at 37° C. for 18 h. […] Wells containing MHB with or without bacterial cells were used as positive or negative control, respectively.

K. pneumoniae 113250 = assay type: cell-based, Klebsiella pneumoniae; settings: 113250
Procedure: as §1, §2, §3

P. aeruginosa PAO1 = assay type: cell-based, Pseudomonas aeruginosa
Source text: as §2, §3

P. aeruginosa PA095 = assay type: cell-based, Pseudomonas aeruginosa
Source text: as §2, §3

[1] = system: P. aeruginosa PA264-104354; assay type: cell-based, Pseudomonas aeruginosa
Source text: as §2, §3

P. aeruginosa ATCC 27853 = assay type: cell-based, Pseudomonas aeruginosa; settings: P. aeruginosa ATCC 27853
Source text: as §2, §3

MSSE CANWARD-2008 81388 = assay type: cell-based, Staphylococcus epidermidis; settings: for MIC: MSSE CANWARD-2008 81388 (methicillin-susceptible Staphylococcus epidermidis)
Source text: as §2, §3

S. pneumoniae ATCC 49619 = assay type: cell-based
Source text: as §2, §3

E. faecium ATCC 27270 = assay type: cell-based
Source text: as §2, §3

E. faecalis ATCC 29212 = assay type: cell-based
Source text: as §2, §3

[2] = system: A. baumannii CAN-ICU 63169; assay type: cell-based, Acinetobacter baumannii
Source text: as §2, §3

A. baumannii LAC-4 = assay type: cell-based, Acinetobacter baumannii
Source text: as §2, §3

A. baumannii AB027 = assay type: cell-based, Acinetobacter baumannii
Source text: as §2, §3

A. baumannii ATCC 17978 = assay type: cell-based, Acinetobacter baumannii; settings: A. baumannii ATCC 17978
Source text: as §2, §3

A. baumannii AB031 = assay type: cell-based, Acinetobacter baumannii
Source text: as §2, §3

A. baumannii 110193 = assay type: cell-based, Acinetobacter baumannii; settings: A. baumannii 110193
Source text: as §2, §3

P. aeruginosa PAO200 = settings: for MIC: P. aeruginosa PAO200, efflux-deficient strain that lacks the MexAB-OprM pump
Source text: (§4) To our curiosity, we explored whether efflux can affect the activity of polymyxins. It is widely accepted that polymyxins disrupt Gram-negative bacterial membranes that result to intracellular component leakage and bacterial cell death. However, for this to occur requires the agent to reach the periplasmic space to interact and disrupt the inner membrane. Active efflux may potentially expel polymyxins out of the periplasm, effectively reducing its periplasmic and intracellular concentrations. To study the effect of efflux on polymyxins in Gram-negative pathogens, we used P. aeruginosa as they inherently overexpress efflux systems such as MexAB-OprM, MexCD-OprJ and MexXY-OprM. Moreover, antibiotic substrates for these efflux systems are mostly characterized. We evaluated and compared the activity of the dilipid polymyxins, colistin and PMBN against wild-type PAO1 and two efflux-deficient P. aeruginosa isogenic mutants (Table 5). The strain PAO200 lacks the MexAB-OprM efflux system while strain PAO750 lacks five clinically-relevant pumps (MexAB-OprM, MexCD-OprJ, MexEF-OprN, MexJK and MexXY) and outer membrane protein OpmH.
as §2, §3

P. aeruginosa PAO750 = settings: P. aeruginosa PAO750, efflux-deficient strain that lacks five pumps and OpmH
Source text: as §4, §2, §3

E. coli CAN-ICU 61714 = assay type: cell-based, Escherichia coli
Source text: as §2, §3

E. coli ATCC 25922 = assay type: cell-based, Escherichia coli
Source text: as §2, §3

E. coli CAN-ICU 63074 = assay type: cell-based, Escherichia coli
Source text: as §2, §3

E. coli 107115 = assay type: cell-based, Escherichia coli
Source text: as §2, §3

E. coli 94474 = assay type: cell-based, Escherichia coli; settings: 94474
Procedure: as §1, §2, §3

E. coli 94393 = assay type: cell-based, Escherichia coli; settings: 94393
Procedure: as §1, §2, §3

Compound	MIC (K. pneumoniae 113254) [µg/mL]	MIC (K. pneumoniae 113250) [µg/mL]	MIC (P. aeruginosa PAO1; P. aeruginosa PAO1 (wild type)) [µg/mL]	MIC (P. aeruginosa PA095; PA095) [µg/mL]	MIC ([1]; PA264-104354) [µg/mL]	MIC (P. aeruginosa ATCC 27853) [µg/mL]	MIC (MSSE CANWARD-2008 81388) [µg/mL]	MIC (S. pneumoniae ATCC 49619; S. pneumoniae ATCC 49619) [µg/mL]	MIC (E. faecium ATCC 27270; E. faecium ATCC 27270) [µg/mL]	MIC (E. faecalis ATCC 29212; E. faecalis ATCC 29212) [µg/mL]	MIC ([2]; A. baumannii CAN-ICU 63169) [µg/mL]	MIC (A. baumannii AB027; A. baumannii AB027) [µg/mL]	MIC (A. baumannii ATCC 17978) [µg/mL]	MIC (A. baumannii AB031; A. baumannii AB031) [µg/mL]	MIC (A. baumannii 110193) [µg/mL]	MIC (P. aeruginosa PAO200) [µg/mL]	MIC (P. aeruginosa PAO750) [µg/mL]	MIC (E. coli CAN-ICU 61714; E. coli CAN-ICU 61714) [µg/mL]	MIC (E. coli 94474) [µg/mL]	MIC (E. coli 94393) [µg/mL]	further results
CCCC(=O)NCC[C@H](NC(=O)CCC)C(=O)N[C@H](C(=O)N[C@@H](CCN)C(=O)N[C@H]1CCNC(=O)[C@H]([C@@H](C)O)NC(=O)[C@H](CCN)NC(=O)[C@H](CCN)NC(=O)[C@H](CC(C)C)NC(=O)[C@@H](Cc2ccccc2)NC(=O)[C@H](CCN)NC1=O)[C@@H](C)O [Compound 1, Dibutyric Acid (Di-C4) Polymyxin] (Butyryl-[Dab](Butyryl)T[Dab][Dab][Dab][dF]L[Dab][Dab]T; lactam 4-C)	>64	>64	128 (≈ 106 µM)	64 (≈ 53.2 µM)	128 (≈ 106 µM)	>128	>128	>128	>128	>128	>128	>128	>128	>128	>128	4 (≈ 3.32 µM)	8 (≈ 6.65 µM)	>128	>64	>64	MIC (A. baumannii LAC-4; LAC-4): 128 µg/mL (≈ 106 µM); fold difference in MIC against wild-type PAO1 and efflux-deficient PAO200 (P. aeruginosa PAO200; PAO1 versus PAO200 (lacks MexAB-OprM)): 32 fold; MIC (E. coli ATCC 25922; E. coli ATCC 25922): >128 µg/mL; MIC (E. coli CAN-ICU 63074; E. coli CAN-ICU 63074): >128 µg/mL; MIC (E. coli 107115; 107115): 128 µg/mL (≈ 106 µM)
CCCCCCCCCCCC(=O)NCC[C@H](NC(=O)CCCCCCCCCCC)C(=O)N[C@H](C(=O)N[C@@H](CCN)C(=O)N[C@H]1CCNC(=O)[C@H]([C@@H](C)O)NC(=O)[C@H](CCN)NC(=O)[C@H](CCN)NC(=O)[C@H](CC(C)C)NC(=O)[C@@H](Cc2ccccc2)NC(=O)[C@H](CCN)NC1=O)[C@@H](C)O [Compound 3, Didodecanoic Acid (Di-C12) Polymyxin] (Lauroyl-[Dab](Lauroyl)T[Dab][Dab][Dab][dF]L[Dab][Dab]T; lactam 4-C)	>64	>64		8 (≈ 5.6 µM)	64 (≈ 44.8 µM)	>128	64 (≈ 44.8 µM)						>128		>128	32 (≈ 22.4 µM)	32 (≈ 22.4 µM)		>64	32 (≈ 22.4 µM)	MIC (P. aeruginosa PAO1; PAO1): 32 µg/mL (≈ 22.4 µM); MIC (S. pneumoniae ATCC 49619; ATCC 49619): 64 µg/mL (≈ 44.8 µM); MIC (E. faecium ATCC 27270; ATCC 27270): 8 µg/mL (≈ 5.6 µM); MIC (E. faecalis ATCC 29212; ATCC 29212): 64 µg/mL (≈ 44.8 µM); MIC ([2]; CAN-ICU 63169): 128 µg/mL (≈ 89.6 µM); MIC (A. baumannii LAC-4; A. baumannii LAC-4): >128 µg/mL; MIC (A. baumannii AB027; AB027): 128 µg/mL (≈ 89.6 µM); MIC (A. baumannii AB031; AB031): 64 µg/mL (≈ 44.8 µM); MIC (E. coli CAN-ICU 61714; CAN-ICU 61714): 128 µg/mL (≈ 89.6 µM); MIC (E. coli ATCC 25922; ATCC 25922): 16 µg/mL (≈ 11.2 µM); MIC (E. coli CAN-ICU 63074; CAN-ICU 63074): 64 µg/mL (≈ 44.8 µM); MIC (E. coli 107115; 107115): 8 µg/mL (≈ 5.6 µM)
CC(C)C[C@@H]1NC(=O)[C@@H](Cc2ccccc2)NC(=O)[C@H](CCN)NC(=O)[C@@H](NC(=O)[C@H](CCN)NC(=O)[C@@H](NC(=O)[C@H](CCNC(=O)c2ccc(-c3ccccc3)cc2)NC(=O)c2ccc(-c3ccccc3)cc2)[C@@H](C)O)CCNC(=O)[C@H]([C@@H](C)O)NC(=O)[C@H](CCN)NC(=O)[C@H](CCN)NC1=O [Compound 5, Dibiphenyl-4-Carboxylic Acid (Di-Biphenyl) Polymyxin] ({Benzoyl(4-Ph)}-[Dab](Benzoyl(4-Ph))T[Dab][Dab][Dab][dF]L[Dab][Dab]T; lactam 4-C)	>64	>64	8 (≈ 5.62 µM)			32 (≈ 22.5 µM)	8 (≈ 5.62 µM)	32 (≈ 22.5 µM)	8 (≈ 5.62 µM)	16 (≈ 11.2 µM)	64 (≈ 45 µM)	6 (≈ 4.21 µM)	16 (≈ 11.2 µM)	8 (≈ 5.62 µM)	16 (≈ 11.2 µM)	4 (≈ 2.81 µM)	4 (≈ 2.81 µM)	32 (≈ 22.5 µM)	8 (≈ 5.62 µM)	16 (≈ 11.2 µM)	MIC (P. aeruginosa PA095; P. aeruginosa PA095): 4 µg/mL (≈ 2.81 µM); MIC ([1]; P. aeruginosa PA264-104354): 8 µg/mL (≈ 5.62 µM); fold better MIC than colistin (MSSE CANWARD-2008 81388; methicillin-susceptible Staphylococcus epidermidis): 32 fold; MIC (A. baumannii LAC-4; A. baumannii LAC-4): 16 µg/mL (≈ 11.2 µM); MIC (E. coli ATCC 25922; E. coli ATCC 25922): 8 µg/mL (≈ 5.62 µM); MIC (E. coli CAN-ICU 63074; E. coli CAN-ICU 63074): 32 µg/mL (≈ 22.5 µM); MIC (E. coli 107115; E. coli 107115): 4 µg/mL (≈ 2.81 µM)
